In test [1] the test system is mastocarcinoma. The experiment in a line: Inhibition of tumor growth in rats with mastocarcinoma after 7,12-dimethylbenzanthracene. The format is in vivo, Sprague-Dawley rats. The settings on record: Rattus norvegicus, 600 h, read-out: I.R. (inhibition rate of tumor growth). As for the experimental part:
Female Sprague-Dawley rates aged 50 days were orally given 7,12-dimethylbenzanthracene (15 mg/kg) and observed for two months. The rats that developed spontaneous mastocarcinoma were selected and divided into three groups of 15 animals.
The first group was administered daily an ip injection for 20 consecutive days in an amount of 20 mg/kg (body weight) of the compounds in a physiological salt solution (10 ml).
The second group was also treated in the same manner as the first group except that 4-hydroxyandrostenedione was used as a positive control.
The third group was administered only an amount of 10 ml of a physiological salt solution.
After 5 days from the last injection, the rats were sacrificed to enucleate tumors.
The tumors were weighed and the mean tumor weight (T) of the first and the second groups was calculated. The mean tumor weight (C) of the third group was also calculated. […] [formula]

Test [2] concerns the target T1, aromatase (Homo sapiens, UniProt P11511).
T1 construct: microsomes arising from human placenta (0.1 mg/ml, protein concentration); from tissue; host or cells: human placenta microsomes
T1 sequence (P11511 1-503): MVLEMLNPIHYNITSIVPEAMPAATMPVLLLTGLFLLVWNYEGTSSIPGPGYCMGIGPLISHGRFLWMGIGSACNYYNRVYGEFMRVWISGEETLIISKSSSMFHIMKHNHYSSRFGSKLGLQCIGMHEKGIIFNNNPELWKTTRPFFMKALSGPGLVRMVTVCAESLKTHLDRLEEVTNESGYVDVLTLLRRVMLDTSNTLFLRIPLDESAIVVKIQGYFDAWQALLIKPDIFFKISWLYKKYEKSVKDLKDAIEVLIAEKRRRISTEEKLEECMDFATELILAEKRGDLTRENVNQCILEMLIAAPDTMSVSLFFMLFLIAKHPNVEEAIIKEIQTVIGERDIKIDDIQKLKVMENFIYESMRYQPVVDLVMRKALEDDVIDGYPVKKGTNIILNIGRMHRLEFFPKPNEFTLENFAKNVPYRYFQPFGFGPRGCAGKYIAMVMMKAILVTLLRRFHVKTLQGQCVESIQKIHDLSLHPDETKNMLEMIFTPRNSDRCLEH
Kind of test: Aromatase inhibitory activity (H14COOH release from [19-14C]4-androstene-3,17-dione, human placenta microsomes). The format is biochemical. The method, then:
The aromatase inhibitory activity was measured in the manner described by Covey, D. F., Biochem. and Biophys. Res. Commun., 157 (1) 81-86 (1988). The inhibitory activity of the aromatase with the compounds was evaluated in a 50% inhibitory concentration (IC50) of the aromatase activity.
Aromatase activity was measured in the manner described by Covey, D. F., Biochem. Biophys. Res. Commun. 157 (1), 81-86 (1988).
The inhibitory activity of the aromatase with the compounds was evaluated in 50% inhibitory concentration (IC50) of the aromatase.
An aromatase base was taken from microsomes of human placenta and [19-^14 C]4-androstene-3,17 dione was used as a substrate. H^14 COOH was released into a reaction mixture after aromatization and its radioactivity was measured to evaluate the aromatase activity.
The inhibitory activity of the aromatase and the concentration of the compounds were depicted in a graph from which the IC50 was calculated.
To a solution of phosphoric acid buffer, [19-^14 C]4-androstene-3,17-dione (1×10^-6 M, 2 kBq/ml), microsomes arising from human placenta (0.1 mg/ml, protein concentration), coenzyme (2×10^-3 M, […]), glucose-6-phosphoric acid (4×10^-3 M), and glucose-6-phosphoric acid dehydrogenase (4U/ml) were added and reacted under stirring at 37° C. for 30 min.
The compound that was dissolved in DMSO was added into the reaction mixture and the final concentration of MDSO was in the range of 0.1 to 0.55% by volume. Chloroform (5 ml) was then added into the reaction mixture to terminate the reaction and to allow for recovery of the H^14 COOH in a water layer. The collected water layer (0.1 ml) was added in liquid scintillation cocktail (Atomlight, duPont, 4 ml) to measure its radioactivity. 4-Hydroxyandrostenedione was used as a positive control.

Where [3] appears, read: female Sprague-Dawley rats, daily ip 20 mg/kg for 20 consecutive days, tumors weighed 5 days after last injection.
Where [4] appears, read: microsomes of human placenta, 0.1 mg/ml protein, substrate [19-14C]4-androstene-3,17-dione 1×10^-6 M, 37° C., 30 min, read-out: 50% inhibitory concentration (IC50) of the aromatase activity.

Like-named read-outs stand apart in the source and are kept apart here.

`OC1(Cn2cncn2)CCCC1Cc1ccc(F)cc1` (stereo not shown) [Comp. No. 1, 2-(p-Fluorobenzyl)-1-(1,2,4-triazoly-1-yl-methyl)cyclopentanol]: the inhibition in vivo at 20 mg/kg in test [1] (setting [3]) is 60%. Further, the IC50 in test [2] was determined as 3.5 µM.
Take `OC1(Cn2ccnc2)CCCC1Cc1ccc(F)cc1` (stereo not shown) [Comp. No. 2, 2-(-Fluorobenzyl)-1-(imidazoly-1-ylmethyl)cyclopentanol]: the inhibition in vivo at 20 mg/kg in test [1] (setting [3]) came to 70%. Besides, the IC50 in test [2] stood at 7 µM.
In the same order, the values of `OC1(Cn2cncn2)CCCC1Cc1ccc(F)cc1F` (stereo not shown) [Comp. No. 9, 2-(2,4-Difluorobenzyl)-1-(1,2,4-triazoly-1-yl-methyl)cyclopentanol] are 72% and 7.5 µM.
Take `OC1(Cn2ccnc2)CCCC1Cc1ccc(F)cc1F` (stereo not shown) [Comp. No. 10, 2-(2,4-Difluorobenzyl)-1-(imidazoly-1-yl-methyl)cyclopentanol]: the inhibition in vivo at 20 mg/kg in test [1] (setting [3]) came out at 85%. For the same compound, the IC50 in test [2] turned out to be 0.48 µM.
Regarding `C[C@]12CCC(=O)C(O)=C1CC[C@@H]1[C@@H]2CC[C@]2(C)C(=O)CC[C@@H]12` [Control, 4-Hydroxyandrostenedione, reference compound], the IC50 in test [2] was found to be 20 µM.
Take `OC1(Cn2cncn2)CCCC1Cc1ccc(Cl)cc1` (stereo not shown) [compound 3]: the inhibition in vivo at 20 mg/kg in test [1] (setting [3]) came to 64%. The compound also had an IC50 in test [2] of 3.8 µM.
The like results for `OC1(Cn2ccnc2)CCCC1Cc1ccc(Cl)cc1` (stereo not shown) [compound 4] were, in that order, 74% and 5 µM.
Consider `N#Cc1ccc(CC2CCCC2(O)Cn2cncn2)cc1` (stereo not shown) [compound 5], for which, in test [1] (setting [3]), the inhibition in vivo at 20 mg/kg is 60%. For the same compound, the IC50 in test [2] is 7.3 µM.
As to `N#Cc1ccc(CC2CCCC2(O)Cn2ccnc2)cc1` (stereo not shown) [compound 6], in test [1] (setting [3]), the inhibition in vivo at 20 mg/kg stood at 53%. Also, the IC50 in test [2] (setting [4]) was 4.5 µM.
In the same order, the values of `CC1(C)CCC(Cc2ccccc2-c2ccccc2)C1(O)Cn1ccnc1` (stereo not shown) [compound 7] are 58% and 3.7 µM.
For `CC1(C)CCC(Cc2ccc(-c3ccccc3)cc2)C1(O)Cn1ccnc1` (stereo not shown) [compound 8], the inhibition in vivo at 20 mg/kg in test [1] (setting [3]) is 60%. Further, the IC50 in test [2] (setting [4]) turned out to be 4.1 µM.
`CC(C)(C)c1ccc(CC2CCC(C)(C)C2(O)Cn2cncn2)cc1` (stereo not shown) [compound 11]: the inhibition in vivo at 20 mg/kg in test [1] (setting [3]) came out at 71%. Besides, in test [2], the IC50 came to 2.6 µM.
In the same order, the values of `CC(C)(C)c1ccc(CC2CCC(C)(C)C2(O)Cn2ccnc2)cc1` (stereo not shown) [compound 12] are 73% and 4.2 µM.
`CC(C)c1ccc(CC2CCC(C)(C)C2(O)Cn2cncn2)cc1` (stereo not shown) [compound 13]: the inhibition in vivo at 20 mg/kg in test [1] (setting [3]) was 55%. The compound further registered an IC50 in test [2] of 8.4 µM.
With `CC(C)c1ccc(CC2CCC(C)(C)C2(O)Cn2ccnc2)cc1` (stereo not shown) [compound 14], the inhibition in vivo at 20 mg/kg in test [1] (setting [3]) turned out to be 63%. This compound also had an IC50 in test [2] of 6 µM.
Consider `CC1(C)CCC(Cc2ccc(Cl)cc2)C1(O)Cn1cncn1` (stereo not shown) [compound 15], for which the inhibition in vivo at 20 mg/kg in test [1] (ip) was determined as 74%. Further, in test [2], the IC50 was 4.7 µM.
With `CC1(C)CCC(Cc2ccc(Cl)cc2)C1(O)Cn1ccnc1` (stereo not shown) [compound 16], the inhibition in vivo at 20 mg/kg in test [1] (setting [3]) was determined as 83%. In test [2], this compound returned an IC50 of 0.3 µM.
As for `CC1(C)CCC(Cc2ccc(F)cc2F)C1(O)Cn1ccnc1` (stereo not shown) [compound 17], the inhibition in vivo at 20 mg/kg in test [1] (setting [3]) turned out to be 67%. This compound registered an IC50 in test [2] of 0.4 µM.
On to `CC1(C)CCC(Cc2ccc(C(F)(F)F)cc2)C1(O)Cn1cncn1` (stereo not shown) [compound 18], for which, in test [1] (setting [3]), the inhibition in vivo at 20 mg/kg was determined as 65%. In test [2], the IC50 stood at 7.2 µM.
Take `CC1(C)CCC(Cc2ccc(C(F)(F)F)cc2)C1(O)Cn1ccnc1` (stereo not shown) [compound 19]: the inhibition in vivo at 20 mg/kg in test [1] (setting [3]) turned out to be 63%. This compound returned an IC50 in test [2] of 5.5 µM.
Turning to `CC(C)c1ccc(CC2CCCC2(O)Cn2cncn2)cc1` (stereo not shown) [compound 20], the inhibition in vivo at 20 mg/kg in test [1] (setting [3]) turned out to be 60%. Also, the IC50 in test [2] is 4.3 µM.
As for `CC(C)c1ccc(CC2CCCC2(O)Cn2ccnc2)cc1` (stereo not shown) [compound 21], the inhibition in vivo at 20 mg/kg in test [1] (setting [3]) came out at 72%. In test [2] (setting [4]), the IC50 was found to be 6.3 µM.

The values above are taken from patent publication US5286737A, “Method for inhibiting aromatase” (Kureha Kagaku Kogyo Kabushiki Kaisha, priority 1992, dated 1994).
